From ChEMBL document CHEMBL4425081, “Design and Development of Microsomal Prostaglandin E2 Synthase-1 Inhibitors: Challenges and Future Directions” (J Med Chem, 2016)

Experiments:
Prostaglandin E synthase [1] = target: T1, Prostaglandin E synthase (Homo sapiens, UniProt O14684); assay: Inhibition of human mPGES-1 expressed in CHO-K1 cells using PGH2 as substrate assessed as PGE2 formation preincubated for 20 mins followed by addition of substrate measured after 60 secs by HTRF assay; type: cell-based
T1 sequence (O14684 whole entry): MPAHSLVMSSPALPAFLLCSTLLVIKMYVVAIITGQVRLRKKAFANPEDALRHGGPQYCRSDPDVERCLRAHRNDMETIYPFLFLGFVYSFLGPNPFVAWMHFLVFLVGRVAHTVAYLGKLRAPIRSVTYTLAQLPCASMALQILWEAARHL

Prostaglandin E synthase [2] = target: T1, Prostaglandin E synthase; assay: Inhibition of mPGES-1 in human A549 cells assessed as PGE2[…] formation preincubated for 60 mins prior to IL-beta stimulation measured after 24 hrs by EIA; type: cell-based
[3] = target: T2, Prostaglandin G/H synthase 1 (Ovis aries, UniProt P05979); assay: Inhibition of ovine COX-1 assessed as 12-HHT formation preincubated for 5 mins followed by addition of arachidonic acid as substrate measured after 5 mins by HPLC analysis
T2 sequence (P05979 whole entry): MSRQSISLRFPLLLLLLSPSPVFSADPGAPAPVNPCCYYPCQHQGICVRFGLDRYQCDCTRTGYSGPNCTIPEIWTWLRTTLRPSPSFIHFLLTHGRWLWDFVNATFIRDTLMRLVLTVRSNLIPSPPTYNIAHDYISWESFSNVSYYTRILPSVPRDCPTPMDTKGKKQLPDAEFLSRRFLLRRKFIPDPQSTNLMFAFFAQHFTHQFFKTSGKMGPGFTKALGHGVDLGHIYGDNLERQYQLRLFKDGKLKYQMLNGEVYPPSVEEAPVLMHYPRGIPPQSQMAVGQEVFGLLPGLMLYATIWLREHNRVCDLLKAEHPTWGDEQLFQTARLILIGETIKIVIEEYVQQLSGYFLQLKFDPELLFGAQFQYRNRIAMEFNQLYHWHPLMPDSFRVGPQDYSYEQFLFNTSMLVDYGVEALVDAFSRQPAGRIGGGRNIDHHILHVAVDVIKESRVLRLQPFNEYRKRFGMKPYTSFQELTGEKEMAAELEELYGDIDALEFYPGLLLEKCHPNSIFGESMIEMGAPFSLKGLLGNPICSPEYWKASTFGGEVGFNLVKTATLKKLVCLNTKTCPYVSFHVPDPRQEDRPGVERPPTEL

[4] = target: T3, Arachidonate 5-lipoxygenase-activating protein (Homo sapiens, UniProt P20292); assay: Antagonist activity at FLAP in human PMNC assessed as inhibition of A23187-induced LTB4 biosynthesis pre-incubated for 2 mins followed by addition of A23187 measured after 5 mins by radioimmunoassay
T3 sequence (P20292 whole entry): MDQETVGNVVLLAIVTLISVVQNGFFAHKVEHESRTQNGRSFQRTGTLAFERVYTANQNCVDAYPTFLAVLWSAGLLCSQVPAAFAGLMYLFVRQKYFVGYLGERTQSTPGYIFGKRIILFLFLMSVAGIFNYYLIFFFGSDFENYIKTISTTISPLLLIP

Compound | IC50 (Prostaglandin E synthase [1]) [nM] | IC50 (Prostaglandin E synthase [2]) [nM] | IC50 [3] [nM] | IC50 [4] [nM]
Cn1c(Nc2cc(CNC(=O)C3(C(F)(F)F)CC3)ccc2Cl)nc2cc(C(=O)NCC3CC3)c(OCC(F)F)cc21 | 0.1 | 1.2 |  | 
CC(C)c1ccc2c(c1)c(SC(C)(C)C)c(CC(C)(C)C(=O)O)n2Cc1ccc(Cl)cc1 |  |  | 8000 | 2.5
